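Cells were grown in 96-well plates and exposed to each compound for 48 hours at five concentrations; endpoints were interpolated linearly between bracketing concentrations, or set to the highest concentration if not reached. The concentration for 50% growth inhibition is given as GI50.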 Calls of active or inactive are those of the source. Rule as the data show it: active = GI50 up to about 1.1 µM and inactive = higher.
Columns and labels:
Experiment in all cases: DTP human tumour cell line panel, 48 h
[1] = system: SNB-75
[2] = system: RXF 393
[3] = system: TK-10
[4] = system: UACC-257
[5] = system: HCT-116
[6] = system: OVCAR-3
[7] = system: U-251
[8] = system: M14
[9] = system: HT-29
[10] = system: OVCAR-4
[11] = system: SF-268
[12] = system: A549
[13] = system: MDA-N
[14] = system: KM12
[15] = system: HCT-15
[16] = system: MCF7
[17] = system: SNB-78
[18] = system: SK-MEL-5
[19] = system: NCI-H226
[20] = system: HL-60

Measured: GI50

CCN(CC)CCCNc1ccc2ncn3c4ccc(O)cc4c(=O)c1c23
2.71 µM: [15]
inactive: [3] 1.69 µM | [4] 11.5 µM | [6] 8.69 µM | [7] 1.66 µM | [8] 3.3 µM | [11] 1.66 µM | [13] 6.08 µM | [14] 3.85 µM | [17] 8.65 µM | [18] 3.41 µM
active: [1] 0.871 µM | [2] 0.14 µM | [5] 0.441 µM | [9] 0.649 µM | [10] 1.01 µM | [12] 0.231 µM | [16] 0.687 µM | [19] 0.214 µM

CSC(=S)N/N=C/c1nccc2ccccc12
active: [1] 0.522 µM | [2] 0.721 µM | [7] 0.875 µM | [9] 0.701 µM | [11] 1.04 µM | [20] 0.372 µM | [18] 1.08 µM
inactive: [3] 7.08 µM | [4] 2.07 µM | [5] 1.25 µM | [8] 1.36 µM | [10] 1.16 µM | [12] 1.65 µM | [14] 2.68 µM | [17] 3.18 µM | [19] 1.69 µM
3.45 µM: [15]

COc1ccc2nc3ccccc3c(NCCCN(C)CCCl)c2c1
0.444 µM: [15]
active: [1] 0.224 µM | [2] 0.284 µM | [3] 0.859 µM | [4] 0.644 µM | [5] 0.0877 µM | [6] 0.682 µM | [7] 0.287 µM | [8] 0.453 µM | [9] 0.0998 µM | [10] 0.324 µM | [11] 0.155 µM | [12] 0.235 µM | [13] 0.311 µM | [14] 0.426 µM | [16] 0.213 µM | [20] 0.0614 µM | [17] 0.156 µM | [18] 0.365 µM | [19] 0.226 µM

C[C@]12CCC3[C@@H](CC[C@@H]4c5nonc5CC[C@]34C)C1CCC(=O)N2 (some centres undefined)
> 100 µM: [15]
inactive: [1] 55 µM | [2] > 100 µM | [3] > 100 µM | [4] > 100 µM | [5] > 100 µM | [6] > 100 µM | [7] > 100 µM | [8] > 100 µM | [9] > 100 µM | [10] > 100 µM | [11] > 100 µM | [12] > 100 µM | [14] > 100 µM | [20] 93.8 µM | [17] > 100 µM | [18] > 100 µM | [19] > 100 µM

[O-][S+]1Nc2cccc(C(F)(F)F)c2S1 (centres undefined)
inactive: [1] 29.6 µM | [2] 22.5 µM | [3] 34.4 µM | [4] 32.1 µM | [5] 27.3 µM | [6] 33.5 µM | [7] 31.3 µM | [8] 65.3 µM | [9] 35.7 µM | [10] 46.7 µM | [11] 48 µM | [12] 34 µM | [14] 21.4 µM | [20] 7.66 µM | [17] 31.2 µM | [18] 42 µM | [19] 73.3 µM
18.6 µM: [15]

O=c1nc2sc3ccc4ccccc4c3n2nc1-c1ccccc1
45.1 µM: [15]
inactive: [1] 21.1 µM | [2] 21 µM | [3] 23.1 µM | [4] 99.3 µM | [5] 21.7 µM | [6] 19 µM | [7] 19 µM | [8] 44.4 µM | [9] 94.8 µM | [10] 14.7 µM | [11] 37.3 µM | [12] 28.6 µM | [14] 63.5 µM | [20] > 100 µM | [17] 35.8 µM | [18] 59.2 µM | [19] 59.2 µM

CC1=C(C(=O)Nc2cc(F)c(F)cc2F)C(c2ccc3c(c2)OCO3)C(C(=O)Nc2cc(F)c(F)cc2F)=C(C)N1
inactive: [1] 13.1 µM | [2] 11.5 µM | [3] 23.9 µM | [4] 25.9 µM | [6] 15.7 µM | [7] 27.2 µM | [8] 24.2 µM | [9] 27.4 µM | [10] 19.6 µM | [11] 23.3 µM | [12] 22.6 µM | [14] 19.2 µM | [20] 13.8 µM | [17] 17.2 µM | [18] 19.4 µM | [19] 23.9 µM

C[C@@H]1CC(=O)C2CCCC1C2=O (some centres undefined)
> 100 µM: [15]
inactive: [1] > 100 µM | [2] > 100 µM | [3] > 100 µM | [4] > 100 µM | [5] > 100 µM | [6] > 100 µM | [7] > 100 µM | [8] > 100 µM | [9] > 100 µM | [10] > 100 µM | [11] > 100 µM | [12] > 100 µM | [14] > 100 µM | [20] > 100 µM | [17] > 100 µM | [18] > 100 µM | [19] > 100 µM
